Source: ChEMBL document CHEMBL3885881, “DrugMatrix”

Organism: Rattus norvegicus
Experiment: DrugMatrix - Regimen: Daily Repeat
Type: toxicity, organism-based, Sprague-Dawley
Design: regimen Daily Repeat, gender Male, age 6-8 weeks
Conditions: in vivo, po, 740 mg/kg, route oral GAVAGE, dose level High, vehicle .5 % CMC; for ABSOLUTE BASOPHIL / ABSOLUTE EOSINOPHIL / ABSOLUTE LYMPHOCYTE / ABSOLUTE MONOCYTE / ABSOLUTE SEGMENTED NEUTROPHIL / BASOPHIL / EOSINOPHIL / ERYTHROCYTE COUNT / HEMATOCRIT / HEMOGLOBIN / LEUKOCYTE COUNT / LYMPHOCYTE / MEAN CORPUSCULAR HEMOGLOBIN / MEAN CORPUSCULAR HEMOGLOBIN CONCENTRATION / MEAN CORPUSCULAR VOLUME / MONOCYTE / NEUTROPHIL / NUCLEATED RED BLOOD CELLS / PLATELET COUNT: tissue Blood; for ALANINE AMINOTRANSFERASE / ALBUMIN / ALKALINE PHOSPHATASE / ASPARTATE AMINOTRANSFERASE / BLOOD UREA NITROGEN / CARBON DIOXIDE / CHLORIDE / CHOLESTEROL / CREATININE / GLUCOSE / LACTATE DEHYDROGENASE / LIPASE / PHOSPHORUS / POTASSIUM / SODIUM / TOTAL BILIRUBIN / TOTAL PROTEIN / URIC ACID: tissue Plasma

Compound: COc1ccccc1[N+](=O)[O-] [2-NITROANISOLE]
- ABSOLUTE BASOPHIL (72 h, time 3 day): 0 CELLS/uL
- ABSOLUTE EOSINOPHIL (72 h, time 3 day): 109.33 CELLS/uL
- ABSOLUTE LYMPHOCYTE (72 h, time 3 day): 13522 CELLS/uL
- ABSOLUTE MONOCYTE (72 h, time 3 day): 1089.33 CELLS/uL
- ABSOLUTE SEGMENTED NEUTROPHIL (72 h, time 3 day): 2512.67 CELLS/uL
- BASOPHIL (72 h, time 3 day): 0%
- EOSINOPHIL (72 h, time 3 day): 0.67%
- ERYTHROCYTE COUNT (72 h, time 3 day): 5.38 x10E6/uL
- HEMATOCRIT (72 h, time 3 day): 32.17%
- HEMOGLOBIN (72 h, time 3 day): 11.9 G/DL
- LEUKOCYTE COUNT (72 h, time 3 day): 17.23 x10E3/uL
- LYMPHOCYTE (72 h, time 3 day): 78.67%
- MEAN CORPUSCULAR HEMOGLOBIN (72 h, time 3 day): 22.1 pg
- MEAN CORPUSCULAR HEMOGLOBIN CONCENTRATION (72 h, time 3 day): 37 G/DL
- MEAN CORPUSCULAR VOLUME (72 h, time 3 day): 59.83 fL
- MONOCYTE (72 h, time 3 day): 6.33%
- NEUTROPHIL (72 h, time 3 day): 14.33%
- NUCLEATED RED BLOOD CELLS (72 h, time 3 day): 0 /100WBC
- PLATELET COUNT (72 h, time 3 day): 1241.67 x10E3/uL
- ALANINE AMINOTRANSFERASE (72 h, time 3 day): 84.67 u/L
- ALBUMIN (72 h, time 3 day): 4.37 G/DL
- ALKALINE PHOSPHATASE (72 h, time 3 day): 448.33 u/L
- ASPARTATE AMINOTRANSFERASE (72 h, time 3 day): 103.67 u/L
- BLOOD UREA NITROGEN (72 h, time 3 day): 14 mg/dL
- CARBON DIOXIDE (72 h, time 3 day): 22.67 mmol/L
- CHLORIDE (72 h, time 3 day): 101.67 MEQ/L
- CHOLESTEROL (72 h, time 3 day): 95.67 mg/dL
- CREATININE (72 h, time 3 day): 0.18 mg/dL
- GLUCOSE (72 h, time 3 day): 145 mg/dL
- LACTATE DEHYDROGENASE (72 h, time 3 day): 412.67 u/L
- LIPASE (72 h, time 3 day): 9.33 u/L
- PHOSPHORUS (72 h, time 3 day): 11.6 mg/dL
- POTASSIUM (72 h, time 3 day): 6.07 MEQ/L
- SODIUM (72 h, time 3 day): 142.23 MEQ/L
- TOTAL BILIRUBIN (72 h, time 3 day): 0.23 mg/dL
- TOTAL PROTEIN (72 h, time 3 day): 5.93 G/DL
- URIC ACID (72 h, time 3 day): 1.7 mg/dL
- ABSOLUTE BASOPHIL (120 h, time 5 day): 0 CELLS/uL
- ABSOLUTE EOSINOPHIL (120 h, time 5 day): 0 CELLS/uL
- ABSOLUTE LYMPHOCYTE (120 h, time 5 day): 12322.33 CELLS/uL
- ABSOLUTE MONOCYTE (120 h, time 5 day): 57 CELLS/uL
- ABSOLUTE SEGMENTED NEUTROPHIL (120 h, time 5 day): 3254 CELLS/uL
- BASOPHIL (120 h, time 5 day): 0%
- EOSINOPHIL (120 h, time 5 day): 0%
- ERYTHROCYTE COUNT (120 h, time 5 day): 5.04 x10E6/uL
- HEMATOCRIT (120 h, time 5 day): 30.5%
- HEMOGLOBIN (120 h, time 5 day): 10.83 G/DL
- LEUKOCYTE COUNT (120 h, time 5 day): 15.63 x10E3/uL
- LYMPHOCYTE (120 h, time 5 day): 79%
- MEAN CORPUSCULAR HEMOGLOBIN (120 h, time 5 day): 21.5 pg
- MEAN CORPUSCULAR HEMOGLOBIN CONCENTRATION (120 h, time 5 day): 35.5 G/DL
- MEAN CORPUSCULAR VOLUME (120 h, time 5 day): 60.6 fL
- MONOCYTE (120 h, time 5 day): 0.33%
- NEUTROPHIL (120 h, time 5 day): 20.67%
- NUCLEATED RED BLOOD CELLS (120 h, time 5 day): 1 /100WBC
- PLATELET COUNT (120 h, time 5 day): 1041 x10E3/uL
- ALANINE AMINOTRANSFERASE (120 h, time 5 day): 76.67 u/L
- ALBUMIN (120 h, time 5 day): 4.67 G/DL
- ALKALINE PHOSPHATASE (120 h, time 5 day): 401.67 u/L
- ASPARTATE AMINOTRANSFERASE (120 h, time 5 day): 101 u/L
- BLOOD UREA NITROGEN (120 h, time 5 day): 14.33 mg/dL
- CARBON DIOXIDE (120 h, time 5 day): 33 mmol/L
- CHLORIDE (120 h, time 5 day): 98.33 MEQ/L
- CHOLESTEROL (120 h, time 5 day): 92.33 mg/dL
- CREATININE (120 h, time 5 day): 0.15 mg/dL
- GLUCOSE (120 h, time 5 day): 127 mg/dL
- LACTATE DEHYDROGENASE (120 h, time 5 day): 114.33 u/L
- LIPASE (120 h, time 5 day): 9.67 u/L
- PHOSPHORUS (120 h, time 5 day): 12.23 mg/dL
- POTASSIUM (120 h, time 5 day): 6 MEQ/L
- SODIUM (120 h, time 5 day): 144.43 MEQ/L
- TOTAL BILIRUBIN (120 h, time 5 day): 0.23 mg/dL
- TOTAL PROTEIN (120 h, time 5 day): 6.53 G/DL
- URIC ACID (120 h, time 5 day): 0.9 mg/dL
- ABSOLUTE BASOPHIL ([…], time 14 day): 0 CELLS/uL
- ABSOLUTE EOSINOPHIL ([…], time 14 day): 157.6 CELLS/uL
- ABSOLUTE LYMPHOCYTE ([…], time 14 day): 18755.2 CELLS/uL
- ABSOLUTE MONOCYTE ([…], time 14 day): 504.8 CELLS/uL
- ABSOLUTE SEGMENTED NEUTROPHIL ([…], time 14 day): 3782.4 CELLS/uL
- BASOPHIL ([…], time 14 day): 0%
- EOSINOPHIL ([…], time 14 day): 0.8%
- ERYTHROCYTE COUNT ([…], time 14 day): 4.9 x10E6/uL
- HEMATOCRIT ([…], time 14 day): 34.42%
- HEMOGLOBIN ([…], time 14 day): 12.78 G/DL
- LEUKOCYTE COUNT ([…], time 14 day): 23.2 x10E3/uL
- LYMPHOCYTE ([…], time 14 day): 80.8%
- MEAN CORPUSCULAR HEMOGLOBIN ([…], time 14 day): 26.14 pg
- MEAN CORPUSCULAR HEMOGLOBIN CONCENTRATION ([…], time 14 day): 37.14 G/DL
- MEAN CORPUSCULAR VOLUME ([…], time 14 day): 70.28 fL
- MONOCYTE ([…], time 14 day): 2.2%
- NEUTROPHIL ([…], time 14 day): 16.2%
- NUCLEATED RED BLOOD CELLS ([…], time 14 day): 0 /100WBC
- PLATELET COUNT ([…], time 14 day): 1231 x10E3/uL
- ALANINE AMINOTRANSFERASE ([…], time 14 day): 73.4 u/L
- ALBUMIN ([…], time 14 day): 4.84 G/DL
- ALKALINE PHOSPHATASE ([…], time 14 day): 271.2 u/L
- ASPARTATE AMINOTRANSFERASE ([…], time 14 day): 85.6 u/L
- BLOOD UREA NITROGEN ([…], time 14 day): 17 mg/dL
- CARBON DIOXIDE ([…], time 14 day): 31.6 mmol/L
- CHLORIDE ([…], time 14 day): 99.2 MEQ/L
- CHOLESTEROL ([…], time 14 day): 77 mg/dL
- CREATININE ([…], time 14 day): 0.21 mg/dL
- GLUCOSE ([…], time 14 day): 125 mg/dL
- LACTATE DEHYDROGENASE ([…], time 14 day): 356.6 u/L
- LIPASE ([…], time 14 day): 9 u/L
- PHOSPHORUS ([…], time 14 day): 11.68 mg/dL
- POTASSIUM ([…], time 14 day): 6.84 MEQ/L
- SODIUM ([…], time 14 day): 142.78 MEQ/L
- TOTAL BILIRUBIN ([…], time 14 day): 0.28 mg/dL
- TOTAL PROTEIN ([…], time 14 day): 6.82 G/DL
- URIC ACID ([…], time 14 day): 1.6 mg/dL
